The target of test [1] is PD-L1 His protein / PD-1 Fc protein (Homo sapiens (Human), UniProt Q9NZQ7). The test can be described thus: HTRF Assay (PD-1/PD-L1 interaction). It counts as binding. The conditions noted are these: PD-L1 His 6 nM, PD-1 Fc 6 nM. A general note: In TR-FRET formats the signal depends on donor and acceptor labels being close together.
The target in another test is human PD-L1 (Homo sapiens (Human), UniProt Q9NZQ7). The test can be described thus: T cell activation luciferase reporter cell culture system (T Cell Activation Assay). The format is cell-based. As to conditions: luciferase reporter assay; PD-L1 aAPC/CHO-K1 cells with PD-1 effector Jurkat T cells.
Chain of human PD-L1 (Q9NZQ7 19-290): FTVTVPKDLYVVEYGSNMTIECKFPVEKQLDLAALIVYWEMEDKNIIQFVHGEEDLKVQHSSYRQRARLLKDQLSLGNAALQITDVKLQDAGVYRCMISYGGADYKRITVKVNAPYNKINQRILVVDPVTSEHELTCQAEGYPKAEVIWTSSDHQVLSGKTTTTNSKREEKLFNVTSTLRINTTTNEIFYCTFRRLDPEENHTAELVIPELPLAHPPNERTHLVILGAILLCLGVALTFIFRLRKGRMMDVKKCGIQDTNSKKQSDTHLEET

The structures appear in SMILES notation.

Chain of PD-L1 His protein / PD-1 Fc protein (Q9NZQ7 19-238): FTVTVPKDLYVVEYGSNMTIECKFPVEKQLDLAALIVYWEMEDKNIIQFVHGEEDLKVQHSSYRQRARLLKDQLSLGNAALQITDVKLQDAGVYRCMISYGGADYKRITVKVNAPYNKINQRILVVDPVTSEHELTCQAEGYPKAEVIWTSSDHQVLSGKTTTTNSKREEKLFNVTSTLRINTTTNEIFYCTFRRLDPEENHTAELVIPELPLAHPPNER

As to `COc1cc(-c2nccc(-c3cccc(-c4ccc(CN5CC6(C5)CN(C(C)=O)C6)c(OC)n4)c3Cl)c2Cl)ccc1CN1CC2(CNC(=O)C2)C1` [Example 519, 2-(4-(4-(3-(5-((6-Acetyl-2,6-diazaspiro[3.3]heptan-2-yl)methyl)-6-methoxypyridin-2-yl)-2-chlorophenyl)-3-chloropyridin-2-yl)-2-methoxybenzyl)-2,6-diazaspiro[3.4]octan-7-one], the IC50 in test [1] came to 1.86 nM. Besides, it took 12.8 nM to reach a half-maximal effect at human PD-L1 (EC50).
Take `COc1cc(-c2ncnc(-c3cccc(-c4ccc(CNC5CCN(C(C)=O)CC5)c(OC)n4)c3Cl)c2C)ccc1CNC1CCN(C(C)=O)CC1` [Example 522, 1-(4-(((6-(3-(6-(4-(((1-Acetylpiperidin-4-yl)amino)methyl)-3-methoxyphenyl)-5-methylpyrimidin-4-yl)-2-chlorophenyl)-2-methoxypyridin-3-yl)methyl)amino)piperidin-1-yl)ethan-1-one]: the IC50 in test [1] stood at 2.05 nM. For the same compound, the concentration for a half-maximal effect (EC50) on human PD-L1 was no less than 10000 nM.
Taken in the same sequence, the figures for `COc1cc(-c2nccc(-c3cccc(-c4ccc(CNC5CCOCC5)c(OC)n4)c3C(F)(F)F)c2Cl)ccc1CNC1CCOCC1` [Example 529, N-((6-(3-(3-Chloro-2-(3-methoxy-4-(((tetrahydro-2H-pyran-4-yl)amino)methyl)phenyl)pyridin-4-yl)-2-(trifluoromethyl)phenyl)-2-methoxypyridin-3-yl)methyl)tetrahydro-2H-pyran-4-amine] were 110 nM and no less than 10000 nM.
Compound `COc1cc(-c2nccc(-c3cccc(-c4ccc(CNC5CCOCC5)c(OC)n4)c3Cl)c2Cl)ccc1CN1CC2(CCOCC2)C1` [Example 530, N-((6-(3-(2-(4-((7-Oxa-2-azaspiro[3.5]nonan-2-yl)methyl)-3-methoxyphenyl)-3-chloropyridin-4-yl)-2-chlorophenyl)-2-methoxypyridin-3-yl)methyl)tetrahydro-2H-pyran-4-amine] came in with a concentration for half-maximal inhibition (IC50) in test [1] of 2.51 nM. This compound also displayed a half-maximal effective concentration (EC50) at human PD-L1 of 39.5 nM.
In test [1], `COc1cc(-c2nccc(-c3cccc(-c4ccc(CN5CCC(C(C)=O)CC5)c(OC)n4)c3Cl)c2Cl)ccc1CN1CCC(C(C)=O)CC1` [Example 536, 1-(1-((6-(3-(2-(4-((4-Acetylpiperidin-1-yl)methyl)-3-methoxyphenyl)-3-chloropyridin-4-yl)-2-chlorophenyl)-2-methoxypyridin-3-yl)methyl)piperidin-4-yl)ethan-1-one] yielded an IC50 of 6.7 nM. Further, on human PD-L1, the concentration for a half-maximal effect (EC50) was no less than 10000 nM.
With `COc1cc(-c2ncnc(-c3cccc(-c4ccc(CN5CC6(C5)CN(C(C)=O)C6)c(OC)n4)c3Cl)c2C)ccc1CN1CC2(C1)CN(C(C)=O)C2` [Example 538, 1-(6-((6-(3-(6-(4-((6-Acetyl-2,6-diazaspiro[3.3]heptan-2-yl)methyl)-3-methoxyphenyl)-5-methylpyrimidin-4-yl)-2-chlorophenyl)-2-methoxypyridin-3-yl)methyl)-2,6-diazaspiro[3.3]heptan-2-yl)ethan-1-one], half-maximal inhibition in test [1] (IC50) required 2.59 nM. This compound also returned an EC50 on human PD-L1 of no less than 10000 nM.
`COc1cc(-c2ncnc(-c3cccc(-c4ccc(CNC5CCN(C(C)=O)CC5)c(OC)n4)c3Cl)c2Cl)ccc1CNC1CCN(C(C)=O)CC1` [Example 540, 1-(4-(((6-(3-(6-(4-(((1-Acetylpiperidin-4-yl)amino)methyl)-3-methoxyphenyl)-5-chloropyrimidin-4-yl)-2-chlorophenyl)-2-methoxypyridin-3-yl)methyl)amino)piperidin-1-yl)ethan-1-one] gave a concentration for half-maximal inhibition (IC50) in test [1] of 0.5 nM. This compound also registered an EC50 on human PD-L1 of 86.6 nM.
Compound `COc1cc(-c2nccc(-c3cccc(-c4ccc(CN[C@@H]5CCC(=O)NC5)c(OC)n4)c3Cl)c2Cl)ccc1CNC1CCN(C(C)=O)CC1` [Example 541, (R)-5-(((6-(3-(2-(4-(((1-Acetylpiperidin-4-yl)amino)methyl)-3-methoxyphenyl)-3-chloropyridin-4-yl)-2-chlorophenyl)-2-methoxypyridin-3-yl)methyl)amino)piperidin-2-one] had an IC50 in test [1] of 0.79 nM. This compound showed an EC50 at human PD-L1 of 93.4 nM.
In test [1], `COc1cc(-c2nccc(-c3cccc(-c4ccc(CN[C@H]5CCC(=O)NC5)c(OC)n4)c3Cl)c2Cl)ccc1CNC1CCN(C(C)=O)CC1` [Example 542, (S)-5-(((6-(3-(2-(4-(((1-Acetylpiperidin-4-yl)amino)methyl)-3-methoxyphenyl)-3-chloropyridin-4-yl)-2-chlorophenyl)-2-methoxypyridin-3-yl)methyl)amino)piperidin-2-one] displayed a 50% inhibitory concentration (IC50) of 0.53 nM. The compound further displayed an EC50 on human PD-L1 of 79.2 nM.
On to `COc1cc(-c2ncnc(-c3cccc(-c4ccc(CNC[C@@H]5CCC(=O)N5)c(OC)n4)c3Cl)c2Cl)ccc1CNC[C@@H]1CCC(=O)N1` [Example 543, (S)-5-((((6-(2-chloro-3-(5-chloro-6-(3-methoxy-4-(((((S)-5-oxopyrrolidin-2-yl)methyl)amino)methyl)phenyl)pyrimidin-4-yl)phenyl)-2-methoxypyridin-3-yl)methyl)amino)methyl)pyrrolidin-2-one], for which the half-inhibitory concentration (IC50) in test [1] is 0.29 nM. The EC50 on human PD-L1 was 17.5 nM.
For the compound `COCCC(=O)N1CCC(NCc2ccc(-c3nccc(-c4cccc(-c5ccc(CNC6CCN(C(=O)CCOC)CC6)c(OC)n5)c4Cl)c3Cl)cc2OC)CC1` [Example 546, 1-(4-(((6-(2-Chloro-3-(3-chloro-2-(3-methoxy-4-(((1-(3-methoxypropanoyl)piperidin-4-yl)amino)methyl)phenyl)pyridin-4-yl)phenyl)-2-methoxypyridin-3-yl)methyl)amino)piperidin-1-yl)-3-methoxypropan-1-one], half-maximal inhibition in test [1] (IC50) was put at 1.25 nM. The EC50 at human PD-L1 was found to be 19.5 nM.
Taken in the same sequence, the figures for `COc1nc(-c2ccnc(-c3cccc4c3CC[C@@H]4Oc3nc(OC)c(CNC4CCN(C(C)=O)CC4)cc3C(F)(F)F)c2Cl)ccc1CN1CC2(CNC(=O)C2)C1` [Example 551, (S)-2-((2′-(1-((5-(((1-Acetylpiperidin-4-yl)amino)methyl)-6-methoxy-3-(trifluoromethyl)pyridin-2-yl)oxy)-2,3-dihydro-1H-inden-4-yl)-3′-chloro-6-methoxy-[2,4′-bipyridin]-5-yl)methyl)-2,6-diazaspiro[3.4]octan-7-one] were 0.32 nM and 182 nM.
Taken in the same sequence, the figures for `COc1nc(-c2ccnc(-c3cccc4c3CC[C@@H]4Oc3nc(OC)c(CNC4CCOCC4)cc3C(F)(F)F)c2Cl)ccc1CN1CC2(CNC(=O)C2)C1` [Example 552, (S)-2-((3′-Chloro-6-methoxy-2′-(1-((6-methoxy-5-(((tetrahydro-2H-pyran-4-yl)amino)methyl)-3-(trifluoromethyl)pyridin-2-yl)oxy)-2,3-dihydro-1H-inden-4-yl)-[2,4′-bipyridin]-5-yl)methyl)-2,6-diazaspiro[3.4]octan-7-one] were 0.25 nM and 144 nM.
Taken in the same sequence, the figures for `COc1cc(-c2nccc(-c3cccc(-c4ccc5c(CNC6CCOCC6)cn(C)c5n4)c3Cl)c2Cl)ccc1CNC1CCN(C(C)=O)CC1` [Example 556, 1-(4-((4-(3-Chloro-4-(2-chloro-3-(1-methyl-3-(((tetrahydro-2H-pyran-4-yl)amino)methyl)-1H-pyrrolo[2,3-b]pyridin-6-yl)phenyl)pyridin-2-yl)-2-methoxybenzyl)amino)piperidin-1-yl)ethan-1-one] were 1.22 nM and 222 nM.
`COc1cc(-c2nccc(-c3cccc(-c4ccc5c(CNCCO)cn(C)c5n4)c3Cl)c2Cl)ccc1CNC1CCN(C(C)=O)CC1` [Example 559, 1-(4-((4-(3-Chloro-4-(2-chloro-3-(3-(((2-hydroxyethyl)amino)methyl)-1-methyl-1H-pyrrolo[2,3-b]pyridin-6-yl)phenyl)pyridin-2-yl)-2-methoxybenzyl)amino)piperidin-1-yl)ethan-1-one] returned a half-inhibitory concentration (IC50) in test [1] of 1.61 nM. At human PD-L1, this compound registered a concentration giving a half-maximal response (EC50) of 73.2 nM.
In the case of `COc1cc(-c2nccc(-c3cccc(-c4cnc(CNC5CCN(C(C)=O)CC5)c(OC)c4)c3Cl)c2Cl)ccc1CNC1CCN(C(C)=O)CC1` [Example 565, 1-(4-(((5-(3-(2-(4-(((1-acetylpiperidin-4-yl)amino)methyl)-3-methoxyphenyl)-3-chloropyridin-4-yl)-2-chlorophenyl)-3-methoxypyridin-2-yl)methyl)amino)piperidin-1-yl)ethan-1-one], it took 1.72 nM to reach half-maximal inhibition in test [1] (IC50). At human PD-L1, this compound yielded a 50% effective concentration (EC50) of 1040 nM.
In turn, `COc1cc(-c2nccc(-c3cccc(-c4ccc(CN5CC6(COC6)C5)c(OC)n4)c3C(F)(F)F)c2Cl)ccc1CN1CC2(COC2)C1` [Example 578, 6-(4-(4-(3-(5-((2-Oxa-6-azaspiro[3.3]heptan-6-yl)methyl)-6-methoxypyridin-2-yl)-2-(trifluoromethyl)phenyl)-3-chloropyridin-2-yl)-2-methoxybenzyl)-2-oxa-6-azaspiro[3.3]heptane] yielded an IC50 in test [1] of 70.3 nM. This compound also registered an EC50 at human PD-L1 of no less than 10000 nM.
The compound `COc1nc(-c2cccc(-c3ccnc(-c4ccc5c(c4)S(=O)(=O)CCN(C[C@@H]4CCC(=O)N4)C5)c3Cl)c2Cl)ccc1CNC[C@@H]1CCC(=O)N1` [Example 582, (S)-5-((((6-(2-Chloro-3-(3-chloro-2-(1,1-dioxido-4-(((S)-5-oxopyrrolidin-2-yl)methyl)-2,3,4,5-tetrahydrobenzo[f][1,4]thiazepin-8-yl)pyridin-4-yl)phenyl)-2-methoxypyridin-3-yl)methyl)amino)methyl)pyrrolidin-2-one] displayed an IC50 in test [1] of 1.58 nM. The compound also had a concentration giving a half-maximal response (EC50) at human PD-L1 of 1040 nM.
Turning to `CCOc1cc(-c2nccc(-c3cccc(-c4ccc(CNC5CCN(C(C)=O)CC5)c(OC)n4)c3Cl)c2Cl)cn2nc(CN[C@H]3C[C@](C)(O)C3)nc12` [Example 584, 1-(4-(((6-(2-Chloro-3-(3-chloro-2-(8-ethoxy-2-((((1r,3r)-3-hydroxy-3-methylcyclobutyl)amino)methyl)-[1,2,4]triazolo[1,5-a]pyridin-6-yl)pyridin-4-yl)phenyl)-2-methoxypyridin-3-yl)methyl)amino)piperidin-1-yl)ethan-1-one], half-maximal inhibition in test [1] (IC50) required 2.21 nM. Moreover, the half-maximal effective concentration (EC50) at human PD-L1 is no less than 10000 nM.

As usually defined, the IC50 is the concentration that inhibits the measured activity by half. Higher therefore signals lower potency. What is called EC50 is the concentration at which the effect is half-maximal. Low values mean an effect from little substance, high ones a need for much substance.

The values above are taken from patent publication US20240246964A1 (Arbutus Biopharma Corporation, priority 2021, published 2024).
